# Reference: patent US11331282B2, “Ophthalmic composition containing clathrated antioxidant substance, and use thereof” (TK Health Research, Co. Ltd., priority 2017, dated 2022)
# How the values were obtained:
# [1] = tested on: ocular surface goblet cells of a dry eye mouse model; assay: Goblet cell count by PAS stain in BAC dry eye mouse model; assay type: in vivo; conditions: oral administration for two weeks
# Description: To find the effect of astaxanthin eye drops on ocular surface goblet cells of a dry eye mouse model, histological analysis was performed after two weeks of astaxanthin eye drops, and the number of goblet cells was counted by counting the cells stained red by PAS stain.
# A dry eye mouse model was created in the same manner described in Example 1. Subsequently, astaxanthin eye drops were applied and astaxanthin was orally administered (oral intake astaxanthin, also denoted as oAsx) for two weeks. The change in tear volume was measured by Schirmer's test in the same manner as Example 1. The goblet cells were also counted in the same manner as Example 1.
# A dry eye mouse model was created in the same manner as Example 1. Subsequently, water-soluble astaxanthin eye drops and DMSO dissolved astaxanthin eye drops were applied for two weeks, and the change in the tear volume was measured by Schirmer's test in the same manner as Example 1. The goblet cells were also counted in the same manner as Example 1.
# A change in the tear volume in the mouse model is measured by Schirmer's test. The tear volume is determined as a relative tear volume (normal tear volume (filter moving distance): 7.17±1.35 mm) when normal tear volume is 100. Statistical processing: ANOVA, Student's t-test. […]
# dry eye mouse model = assay: Change in tear volume by Schirmer's test in BAC dry eye mouse model; assay type: in vivo; conditions: oral intake 200 mg/kg, two weeks, Day 28, Example 2
# Description: A dry eye mouse model was created by eye drop treatment with benzalkonium chloride (also denoted as BAC).
# After two weeks of continuous BAC treatment of mice, additional BAC treatment and eye drop treatment with water soluble astaxanthin or water soluble control (vehicle, γ-cyclodextrin only) were continued for two weeks. A group of mice applied with only PBS eye drops was used as a […].
# The change in the tear volume in the mouse model was measured by Schirmer's test. The tear volume was determined as a relative tear volume (normal tear volume (filter moving distance): 7.17±1.35 mm) when normal tear volume was 100. Statistical processing: ANOVA, Student's t-test.
# A dry eye mouse model was created in the same manner described in Example 1. […] The change in tear volume was measured by Schirmer's test in the same manner as Example 1. The goblet cells were also counted in the same manner as Example 1.
# A dry eye mouse model was created in the same manner as Example 1. Subsequently, water-soluble astaxanthin eye drops and DMSO dissolved astaxanthin eye drops were applied for two weeks, and the change in the tear volume was measured by Schirmer's test in the same manner as Example 1. The goblet cells were also counted in the same manner as Example 1. […]
# A change in the tear volume in the mouse model is measured by Schirmer's test. […]
# [2] = Solubilization testing by filtration (colour of filtrate, 0.45 μm filter); assay type: physicochemical
# Description: The astaxanthin concentration in the filtrate can be measured by measuring the absorbance of the wavelength 478 nm using an absorption (spectrophoto)meter. […] Astaxanthin was dissolved in DMSO, and the final concentration was adjusted to 6.25, 12.5, 25, 50, and 100 μg/ml with Milli-Q water. After 0 point correction with a solvent, 480 nm absorbance of each astaxanthin solution was measured, and calibration curves were drawn. The concentration of water soluble astaxanthin solution was found from the 480 nm absorbance measurement value of the water soluble astaxanthin solution based thereon. […] Solubilization of lycopene and canthaxanthin was confirmed by filtration with a 0.45 μm filter.
Compound,goblet cell count [1],tear volume (relative to normal tear volume) (dry eye mouse model),solubilization in aqueous solvent (remains in filtrate after filtration) [2]
CC1=C(/C=C/C(C)=C/C=C/C(C)=C/C=C/C=C(C)/C=C/C=C(C)/C=C/C2=C(C)C(=O)[C@@H](O)CC2(C)C)C(C)(C)C[C@H](O)C1=O [astaxanthin],recovery in the goblet cell count was not observed,increased only slightly,–
canthaxanthin,–,–,Successful water-solubilization
